Data as given in patent US20230131376A1, “ADJUVANT-ANTIBIOTIC COMBINATION AGAINST GRAM-NEGATIVE BACTERIA” (University of Notre Dame du Lac, priority 2020, published 2023).
“Also recorded” adds a separate entry of the source.

Columns and labels:
E. coli YD626 (parent) = test: Colistin potentiation, broth microdilution, E. coli YD626 parent; type: cell-based
From the text: (§1) Broth microdilution method for antibiotic potentiation.

F. novicida = settings: tested at 50 μM; cited from earlier work
Francisella philomiragia = settings: tested at 50 μM; cited from earlier work
red blood cells = test: Hemolysis assay; type: cell-based, sheep
Method: Hemolysis assay. Hemolysis assays were performed on mechanically defibrinated sheep blood (Hemostat Labs: DSB30). Defibrinated blood (1.5 mL) was placed into a microcentrifuge tube and centrifuged for 10 min at 10,000 rpm. The supernatant was then removed, and the cells were resuspended in 1 mL of phosphate-buffered saline (PBS). The suspension was centrifuged, the supernatant was removed, and cells were resuspended two additional times. The final cell suspension was then diluted 10-fold. Test compound solutions were made in PBS in small culture tubes and then added to aliquots of the 10-fold suspension dilution of blood. PBS was used as a negative control and a zero hemolysis marker. Triton X (a 1% sample) was used as a positive control serving as the 100% lysis marker. Samples were then placed in an incubator at 37° C. while being shaken at 200 rpm for one hour. After one hour, the samples were transferred to microcentrifuge tubes and centrifuged for 10 min at 10,000 rpm. The resulting supernatant was diluted by a factor of 40 in distilled water. The absorbance of the supernatant was then measured with a UV spectrometer at a 540 nm wavelength.

A. baumannii 3941 = test: Colistin potentiation, chromosomally colistin resistant A. baumannii 3941; type: cell-based
From the text: as §1

K. pneumoniae C3 = test: Colistin potentiation, chromosomally colistin resistant K. pneumoniae C3; type: cell-based
From the text: as §1

[1] = test system: A. baumannii 4106 infection in G. mellonella larvae; test: Galleria mellonella model of A. baumannii infection; type: in vivo; settings: 6×10^5 CFU A. baumannii 4106, day 4
Method: Galleria mellonella Assay. G. mellonella larvae (Speedy Worm, Alexandria, Minn.) were used within 10 days of shipment from the vendor. After reception of worms, larvae were kept in the dark at room temperature for at least 24 h. before infection. Larvae weighing between 200 to 300 mg were used in the survival assay. Using a 10 μL glass syringe (Hamilton, Reno, Nev.) fitted with a 30 G needle (Exel International, St. Petersburg, Fla.), a 5 μL solution of the desired compound(s) and concentration(s) were injected into the last left proleg. Colistin was dosed at 50 mg/kg dissolved in DI water, 2-AIs at 50 mg/kg dissolved in DMSO, tigecycline at 100 mg/kg dissolved in DMSO, and DMSO was injected for a negative control. For bacterial injections, 1 mL from an overnight culture of A. baumannii 4106 in Miller LB broth (Fisher Scientific U.S.) was subcultured into 9 mL Miller LB broth and incubated for an additional 3 h before use. The 10 mL solution was centrifuged and washed three times with phosphate buffer solution (PBS, Fisher Scientific U.S.) before diluting to 6×10^5 CFUs in PBS. Then, 2.5 h. after the first injection, a second 5 μL injection containing 6×10^5 CFUs of A. baumannii 4106 was injected into the second to last left proleg. Injected worms were left at room temperature in the dark while being assessed at 24 h intervals over 4 days. […] Experiment was repeated 3 times using 10 larvae per experimental group. No ethics approval was needed for G. mellonella.

A. baumannii 4106 [2] = test: Colistin potentiation, chromosomally colistin resistant A. baumannii 4106; type: cell-based
From the text: as §1

K. pneumoniae B9 = test: Colistin potentiation, chromosomally colistin resistant K. pneumoniae B9; type: cell-based
From the text: as §1

[3] = test system: mcr-1 plasmid containing E. coli, K. pneumoniae, and A. baumannii; test: Colistin potentiation stated for all three mcr-1 strains together
[4] = test system: A. baumannii 17978 +mcr-1; test: Colistin potentiation with detergent (Tween 80); type: cell-based; settings: adjuvant at 30 μM; 0.01% Tween 80
From the text: Broth microdilution method for antibiotic potentiation with detergent.

4T1 cells = test: MTT cell viability assay; type: cell-based, mouse
Method: MTT Cell Viability Assay. 4T1 cells (ATCC Manassas, Va.) were plated at a density of 1×10^4 cells/well in 96-well plates. (Roswell Park Memorial Institute Media 1640, Gibco, Gaithersburg, Md.) supplemented with 10% Fetal Bovine Serum (Gibco), 2 mM GlutaMAX (Gibco) and 50 μM 2-mercaptoethanol (Sigma Aldrich St. Louis, Mo.) and incubated at 37° C. under a 5% CO2 atmosphere in the dark for 18 h. Cell cultures were treated with serial dilutions of compounds in the presence or absence of 1 μg/mL colistin (3 replicates per condition) and incubated for an additional 18 hours. The following control conditions were used: media only (blank), 1% Triton X100 (0% cell viability), 0.5% DMSO (100% cell viability). Each condition was then treated with 10% volume of a 5 mg/mL solution of 3-(4,5-dimethylthiazol-2-yl)-2,5-diphenyltetrazolium bromide (MTT) (Sigma Aldrich) in sterile filtered 1× phosphate buffered saline (PBS) and incubated for 2 h. at 37° C. in 5% CO2, after which the media was aspirated and the resulting formazan crystals were resuspended in 100 μL acidified (4 mM HCl) isopropanol. The 96-well plate was then read at 540 nm on a FLUOstar Optima (BMG Labtech Cary, N.C.) microplate reader. Cell viability was calculated as a percentage using the two previously mentioned controls.

[5] = test system: chromosomally colistin resistant K. pneumoniae and A. baumannii strains; test: Colistin potentiation stated for the four chromosomally colistin resistant strains together; type: cell-based
From the text: as §1

A. baumannii 4106 [6] = test: In vitro MIC of tigecycline; type: cell-based; settings: Acinetobacter baumannii
Method: Broth microdilution method for MIC determination. […] Aliquots (1 mL) were placed in culture tubes and compound was added from 10 mM stock samples in DMSO, such that compound concentration equaled highest concentration tested (200 μM). Samples were then aliquoted (200 μL) into the first wells of a 96-well plate, with all remaining wells being filled with 100 μL of initial bacterial subculture. Row one wells were mixed five times, before 100 μL was transferred to row two. […] This process was repeated until the final row had been mixed; this served to serially dilute the compound.

[7] = test system: K. pneumoniae 2210291 (parent); test: Colistin potentiation, broth microdilution, K. pneumoniae 2210291 parent; type: cell-based; settings: no adjuvant
From the text: as §1

E. coli YD626 +mcr-1 = test: Colistin potentiation, broth microdilution, E. coli YD626 +mcr-1; settings: no adjuvant
[8] = test system: A. baumannii 17978 +mcr-1; test: Colistin potentiation, broth microdilution, A. baumannii 17978 +mcr-1; settings: no adjuvant
[9] = test system: A. baumannii 17978 (parent); test: Colistin potentiation, broth microdilution, A. baumannii 17978 parent; type: cell-based; settings: no adjuvant
From the text: as §1

[10] = test system: K. pneumoniae 2210291 +mcr-1; test: Colistin potentiation, broth microdilution, K. pneumoniae 2210291 +mcr-1; settings: no adjuvant

## CCCCc1ccc(C(=O)NCCc2c[nH]c3ccccc23)cc1 [Compound 1a]
E. coli YD626 (parent); adjuvant at 50 μM, parent E. coli strain
  fold reduction of colistin MIC: 16 fold
F. novicida
  fold reduction in the colistin MIC: two-fold
Francisella philomiragia
  fold reduction in the colistin MIC: 32 fold

## O=C(NCCc1c[nH]c2ccc(Br)cc12)Nc1cc(Cl)c(Br)c(Cl)c1 [Compound 9e, 1-(2-(5-bromo-1H-indol-3-yl)ethyl)-3-(4-bromo-3,5-dichlorophenyl)urea]
Red blood cells
  toxicity to red blood cells: generally non-toxic
A. baumannii 3941; adjuvant at 7.5 μM
  colistin MIC with adjuvant: 16 µg/mL
A. baumannii 3941; adjuvant at 10 μM
  colistin MIC with adjuvant: 4 µg/mL
A. baumannii 3941; adjuvant at 15 μM
  colistin MIC with adjuvant: 4 µg/mL
A. baumannii 3941; adjuvant at 20 μM
  colistin MIC with adjuvant: 2 µg/mL
K. pneumoniae C3; adjuvant at 7.5 μM
  colistin MIC with adjuvant: 2 µg/mL
K. pneumoniae C3; adjuvant at 8 μM
  colistin MIC with adjuvant: 2 µg/mL
K. pneumoniae C3; adjuvant at 10 μM
  colistin MIC with adjuvant: 1 µg/mL
K. pneumoniae C3; adjuvant at 15 μM
  colistin MIC with adjuvant: 0.5 µg/mL
K. pneumoniae C3; adjuvant at 20 μM
  colistin MIC with adjuvant: 0.5 µg/mL
[1]; 50 mg/kg compound paired with 50 mg/kg colistin
  survival of inoculated worms after 4 days, combination with colistin: 47%
[1]; 50 mg/kg
  survival of inoculated worms after 4 days, monotherapy: 0%
A. baumannii 4106 [2]; adjuvant at 7.5 μM
  colistin MIC with adjuvant: 1 µg/mL
A. baumannii 4106 [2]; adjuvant at 8 μM
  colistin MIC with adjuvant: 4 µg/mL
A. baumannii 4106 [2]; adjuvant at 10 μM
  colistin MIC with adjuvant: 1 µg/mL
  fold reduction of colistin MIC: > 2000 fold
A. baumannii 4106 [2]; adjuvant at 15 μM
  colistin MIC with adjuvant: 0.5 µg/mL
A. baumannii 4106 [2]; adjuvant at 20 μM
  colistin MIC with adjuvant: 0.5 µg/mL
K. pneumoniae B9; adjuvant at 5 μM, K. pneumoniae B9
  colistin MIC with adjuvant: 0.5 µg/mL
K. pneumoniae B9; adjuvant at 5 μM, a chromosomally resistant K. pneumoniae strain (MIC 512 to 0.5 μg/mL)
  fold reduction of colistin MIC: 1024 fold
K. pneumoniae B9; adjuvant at 10 μM, K. pneumoniae B9
  fold reduction of colistin MIC: > 2000 fold
[3]; adjuvant at 5 μM
  resensitization to colistin, all three mcr-1 containing strains: resensitized all three mcr-1 containing bacterial strains to colistin
[3]; adjuvant at 15 μM, susceptibility breakpoint 2 μg/mL
  colistin MIC with adjuvant, all three mcr-1 strains: lowered the colistin MIC to the susceptibility breakpoint
[4]
  colistin sensitization activity in absence and presence of Tween 80: equipotent colistin sensitization activity in the absence and presence of Tween 80
4T1 cells
  toxicity to the 4T1 cell line: generally non-toxic
4T1 cells; 4T1 cells, 18 h, with 1 μg/mL colistin, concentration giving 50% cell viability
  CT50, Compound + colistin: 64.9 µM
4T1 cells; 4T1 cells, 18 h, without colistin, concentration giving 50% cell viability
  CT50, Compound alone: 94.1 µM
[5]; adjuvant at 7.5 μM
  resensitization to breakpoint colistin levels, chromosomally resistant strains: resensitized three out of four chromosomally resistant strains; also recorded: resensitized three out of the four strains to breakpoint colistin levels
[5]; adjuvant at 20 μM
  colistin MIC with adjuvant, all four chromosomally colistin resistant strains (CLSI breakpoint): < 2 µg/mL

## CN(C)c1cc(NC(=O)CNC(C)(C)C)c(O)c2c1C[C@H]1C[C@H]3[C@H](N(C)C)C(O)=C(C(N)=O)C(=O)[C@@]3(O)C(O)=C1C2=O [tigecycline, reference compound]
A. baumannii 4106 [6]
  MIC: 8 µg/mL
[1]; 100 mg/kg
  survival of inoculated worms after 4 days, monotherapy: 20%

## colistin [reference compound]
E. coli YD626 (parent); no adjuvant, E. coli YD626 parent
  colistin MIC, colistin alone: 1 µg/mL
A. baumannii 3941; no adjuvant
  colistin MIC, colistin alone: 512 µg/mL
K. pneumoniae C3; no adjuvant
  colistin MIC, colistin alone: 512 µg/mL
[1]; 50 mg/kg
  survival of inoculated worms after 4 days, monotherapy: 7%
A. baumannii 4106 [2]; no adjuvant
  colistin MIC, colistin alone: 1024 µg/mL
[7]
  colistin MIC, colistin alone: 1 µg/mL
E. coli YD626 +mcr-1
  colistin MIC, colistin alone: 8 µg/mL
K. pneumoniae B9; no adjuvant, K. pneumoniae B9
  colistin MIC, colistin alone: 512 µg/mL
[8]
  colistin MIC, colistin alone: 16 µg/mL
[9]
  colistin MIC, colistin alone: 2 µg/mL
[10]
  colistin MIC, colistin alone: 16 µg/mL
